{"source": "PubChem BioAssay AID1963845", "about": "(Molecular Pharmacology Branch, DTP, NCI, 2024)", "tested_on": "429239-143-T-J1-PDC complex spheroid viability", "assay": "Anticancer human tumor 429239-143-T-J1-PDC patient-derived small cell lung carcinoma cell line growth inhibition [POLQ]", "conditions": "for viability, T/C: stronger effect = lower value", "method": "Multicellular complex tumor spheroid response to Polymerase (POL) inhibitors (novobiocin, ART-558, RP6685) in combination with a variety of drugs and investigational agents in selected tumor cell lines\nThe POL inhibitors (novobiocin, ART-558, and RP6685) were evaluated both individually and in combination with standard of care and investigational anticancer small molecules within a complex spheroid model of solid tumors. . Complex spheroids include a stromal component modeled by human endothelial cells (HUVEC) and fibroblasts modeled by human mesenchymal stem cells (MSCs). The concentration ranges selected for each drug and investigational agent were based upon clinically achievable concentrations if the clinical Cmax of the agent was known.\nCompounds. The drugs and investigational agents: novobiocin (NSC847541), ART-558 (NSC835418), RP-6685 (NSC848927), peposertib (NSC802822), ceralasertib (NSC780249), elimusertib (NSC800525), camonsertib (NSC841442), AZD-1390 (NSC803789), olaparib (NSC753686), talazoparib (NSC767125), rucaparib (NSC756644), sotorasib (NSC818433), MRTX-1133 (NSC836407), SN-38 (NSC673596), topotecan (NSC609699), epotoside (NSC141540), doxorubicin (NSC123127), gemcitabine (NSC613327), 5-fluorouracil (NSC19893), paclitaxel (NSC125973), vemurafenib (NSC761431), MSA-2 (NSC828583), SN-011 (NSC837082), adavosertib (NSC754352), prexasertib (NSC758257), carboplatin (NSC241240) and oxaliplatin (NSC266046), were obtained from the National Cancer Institute (NCI) Developmental Therapeutics Program Chemical Repository (21). The FDA-approved anticancer drug set is available from the Developmental Therapeutics Program at https://dtp.cancer.gov/organization/dscb/obtaining/. […] The stock solutions were prepared in dimethyl sulfoxide (DMSO, Sigma-Aldrich, St. Louis, MO, cat. D2650), except for the platinum compounds which were prepared in saline (Quality Biological, Gaithersburg, MD, cat. 114-055-101), at 800-fold the tested concentration and stored at -70 degrees C prior to their use. All drugs and investigational agents were tested over a range starting from a high concentration at or near the clinical Cmax and decreasing in half-log increments. If the clinical Cmax for an agent had not been determined, the highest concentration tested was 10 microM, except for SN-38, which was tested at a high concentration of 1 microM.\nCell Culture. All cells were maintained in an incubator at 37 degrees C and 5% CO2 with 95% humidity. The PDC lines were cultured according to standard operating procedures established by the NCI PDMR (https://pdmr.cancer.gov). Table 3 of the manuscript, lists the cell lines along with the number of the three cell types plated to form the mct-spheroids and media for tumor cell growth. After thawing, all PDC lines, except 997537-175-T-J1-PDC and 415267-285-R-J2-PDC, were cultured in Matrigel-coated flasks prepared with a working solution of 1X Ham's F-12 nutrient mix, without supplementation (Thermo Fisher Scientific, cat. 11765054), 100 U/mL penicillin-streptomycin (Thermo Fisher Scientific, cat. 15140122), and 2.5% Matrigel (Corning Inc., Corning, NY, cat. 354248) for the first three passages. The two PDC lines 997537-175-T-J1-PDC and 415267-285-R-J2-PDC were cultured on uncoated flasks. The 857933-349-R-J2-PDC line was cultured in 6C/Colon 1B media containing advanced DMEM/F-12 (Thermo Fisher Scientific, cat. 12634028), 10 mM HEPES (Thermo Fisher Scientific, cat. 15630080), 1X GlutaMAX supplement (Thermo Fisher Scientific, cat. 35050061), 0.1 mg/mL primocin (InvivoGen, San Diego, CA, cat. ant-pm-2), 10% defined fetal bovine serum, heat inactivated (HyClone Laboratories Inc., Logan, UT, cat. SH30070.03HI), 50% L-WRN conditioned media (ATCC, cat. CRL-3276), 1.25 mM N-Acetyl-L-cysteine (Sigma-Aldrich, cat. A9165), 10 mM nicotinamide (Sigma-Aldrich, cat. N0636), 1X B-27 supplement (Thermo Fisher Scientific, cat. 17504044), 1X N-2 supplement (Thermo Fisher Scientific, cat. […]", "note": "Values joined by “and” are separate entries in the source; they are usually repeats but may differ in a detail not shown here. Identical values can stand only once.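 Also: luminescence signal used as surrogate measure of viable cells; spheroids exposed to compounds for seven days before readout.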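 For viability, T/C in this document: 100% = DMSO vehicle control viability as luminescence relative to vehicle.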", "data": [{"smiles": "CCc1c2c(nc3ccc(O)cc13)-c1cc3c(c(=O)n1C2)COC(=O)[C@]3(O)CC", "values": [{"measurement": "viability, T/C", "setting": "compound 0.00316 µM", "value": "14.7% and 8.09% and 15.9%"}, {"measurement": "viability, T/C", "setting": "compound 0.01 µM", "value": "15.4% and 8.23% and 16.2%"}, {"measurement": "viability, T/C", "setting": "compound 0.0316 µM", "value": "15.1% and 8.92% and 18.4%"}, {"measurement": "viability, T/C", "setting": "compound 0.1 µM", "value": "18% and 6.71% and 16.7%"}, {"measurement": "viability, T/C", "setting": "compound 0.316 µM", "value": "14.7% and 5.07% and 16%"}, {"measurement": "viability, T/C", "setting": "compound 1 µM", "value": "4.2% and 2.5% and 5.57%"}, {"measurement": "IC50", "setting": "curve of compound", "value": "< 0.00316", "unit": "µM"}]}, {"smiles": "Cn1ncnc1[C@H]1c2n[nH]c(=O)c3cc(F)cc(c23)N[C@@H]1c1ccc(F)cc1", "values": [{"measurement": "viability, T/C", "setting": "compound 0.000316 µM", "value": "101% and 105% and 93.1%"}, {"measurement": "viability, T/C", "setting": "compound 0.001 µM", "value": "96.8% and 94.6% and 88.7%"}, {"measurement": "viability, T/C", "setting": "compound 0.00316 µM", "value": "78% and 94.1% and 76.6%"}, {"measurement": "viability, T/C", "setting": "compound 0.01 µM", "value": "71% and 86% and 60.1%"}, {"measurement": "viability, T/C", "setting": "compound 0.0316 µM", "value": "40.5% and 78.3% and 47.5%"}, {"measurement": "viability, T/C", "setting": "compound 0.1 µM", "value": "30.4% and 63.1% and 29%"}, {"measurement": "IC50", "setting": "curve of compound", "value": "0.0234 µM and > 0.1 µM"}]}, {"smiles": "O=c1[nH]cc(F)c(=O)[nH]1", "note": "+ Cc1cccc(N(C)C(=O)C2C(O)CCN2c2nc(C)cc(C(F)(F)F)c2C#N)c1", "values": [{"measurement": "IC50", "setting": "curve of first compound, second compound 0.0316 µM", "value": "> 10", "unit": "µM"}, {"measurement": "IC50", "setting": "curve of first compound, second compound 0.1 µM", "value": 6.82, "unit": "µM"}, {"measurement": "IC50", "setting": "curve of first compound, second compound 0.316 µM", "value": "> 10", "unit": "µM"}, {"measurement": "IC50", "setting": "curve of first compound, second compound 1 µM", "value": 9.33, "unit": "µM"}, {"measurement": "IC50", "setting": "curve of first compound, second compound 3.16 µM", "value": "> 10", "unit": "µM"}, {"measurement": "IC50", "setting": "curve of first compound, second compound 10 µM", "value": 9.51, "unit": "µM"}, {"measurement": "viability, T/C", "setting": "second compound 0.0316 µM, first compound 0.0316 µM", "value": 108, "unit": "%"}, {"measurement": "viability, T/C", "setting": "second compound 0.0316 µM, first compound 0.1 µM", "value": 109, "unit": "%"}, {"measurement": "viability, T/C", "setting": "second compound 0.0316 µM, first compound 0.316 µM", "value": 101, "unit": "%"}, {"measurement": "viability, T/C", "setting": "second compound 0.0316 µM, first compound 1 µM", "value": 105, "unit": "%"}, {"measurement": "viability, T/C", "setting": "second compound 0.0316 µM, first compound 3.16 µM", "value": 65.9, "unit": "%"}, {"measurement": "viability, T/C", "setting": "second compound 0.0316 µM, first compound 10 µM", "value": 54.5, "unit": "%"}, {"measurement": "viability, T/C", "setting": "second compound 0.1 µM, first compound 0.0316 µM", "value": 106, "unit": "%"}, {"measurement": "viability, T/C", "setting": "second compound 0.1 µM, first compound 0.1 µM", "value": 92.3, "unit": "%"}, {"measurement": "viability, T/C", "setting": "second compound 0.1 µM, first compound 0.316 µM", "value": 104, "unit": "%"}, {"measurement": "viability, T/C", "setting": "second compound 0.1 µM, first compound 1 µM", "value": 91.1, "unit": "%"}, {"measurement": "viability, T/C", "setting": "second compound 0.1 µM, first compound 3.16 µM", "value": 61.4, "unit": "%"}, {"measurement": "viability, T/C", "setting": "second compound 0.1 µM, first compound 10 µM", "value": 44.4, "unit": "%"}, {"measurement": "viability, T/C", "setting": "second compound 0.316 µM, first compound 0.0316 µM", "value": 96.6, "unit": "%"}, {"measurement": "viability, T/C", "setting": "second compound 0.316 µM, first compound 0.1 µM", "value": 112, "unit": "%"}, {"measurement": "viability, T/C", "setting": "second compound 0.316 µM, first compound 0.316 µM", "value": 101, "unit": "%"}, {"measurement": "viability, T/C", "setting": "second compound 0.316 µM, first compound 1 µM", "value": 104, "unit": "%"}, {"measurement": "viability, T/C", "setting": "second compound 0.316 µM, first compound 3.16 µM", "value": 56.5, "unit": "%"}, {"measurement": "viability, T/C", "setting": "second compound 0.316 µM, first compound 10 µM", "value": 50.8, "unit": "%"}, {"measurement": "viability, T/C", "setting": "second compound 1 µM, first compound 0.0316 µM", "value": 105, "unit": "%"}, {"measurement": "viability, T/C", "setting": "second compound 1 µM, first compound 0.1 µM", "value": 110, "unit": "%"}, {"measurement": "viability, T/C", "setting": "second compound 1 µM, first compound 0.316 µM", "value": 120, "unit": "%"}, {"measurement": "viability, T/C", "setting": "second compound 1 µM, first compound 1 µM", "value": 87.8, "unit": "%"}, {"measurement": "viability, T/C", "setting": "second compound 1 µM, first compound 3.16 µM", "value": 72.4, "unit": "%"}, {"measurement": "viability, T/C", "setting": "second compound 1 µM, first compound 10 µM", "value": 47.7, "unit": "%"}, {"measurement": "viability, T/C", "setting": "second compound 3.16 µM, first compound 0.0316 µM", "value": 95.9, "unit": "%"}, {"measurement": "viability, T/C", "setting": "second compound 3.16 µM, first compound 0.1 µM", "value": 97.2, "unit": "%"}, {"measurement": "viability, T/C", "setting": "second compound 3.16 µM, first compound 0.316 µM", "value": 114, "unit": "%"}, {"measurement": "viability, T/C", "setting": "second compound 3.16 µM, first compound 1 µM", "value": 78.2, "unit": "%"}, {"measurement": "viability, T/C", "setting": "second compound 3.16 µM, first compound 3.16 µM", "value": 56.5, "unit": "%"}, {"measurement": "viability, T/C", "setting": "second compound 3.16 µM, first compound 10 µM", "value": 47.6, "unit": "%"}, {"measurement": "viability, T/C", "setting": "second compound 10 µM, first compound 0.0316 µM", "value": 98.7, "unit": "%"}, {"measurement": "viability, T/C", "setting": "second compound 10 µM, first compound 0.1 µM", "value": 93.9, "unit": "%"}, {"measurement": "viability, T/C", "setting": "second compound 10 µM, first compound 0.316 µM", "value": 97.5, "unit": "%"}, {"measurement": "viability, T/C", "setting": "second compound 10 µM, first compound 1 µM", "value": 83.9, "unit": "%"}, {"measurement": "viability, T/C", "setting": "second compound 10 µM, first compound 3.16 µM", "value": 65, "unit": "%"}, {"measurement": "viability, T/C", "setting": "second compound 10 µM, first compound 10 µM", "value": 49.2, "unit": "%"}]}, {"smiles": "CCc1cc2c(N3CCc4c(cc(Cn5ccnc5)cc4-c4cn(C)nc4C(F)(F)F)C3=O)ccnc2c(OC)n1", "values": [{"measurement": "viability, T/C", "setting": "compound 0.0316 µM", "value": "91% and 106% and 101%"}, {"measurement": "viability, T/C", "setting": "compound 0.1 µM", "value": "85.1% and 102% and 98.5%"}, {"measurement": "viability, T/C", "setting": "compound 0.316 µM", "value": "75.5% and 95.9% and 87.7%"}, {"measurement": "viability, T/C", "setting": "compound 1 µM", "value": "61.2% and 86.6% and 91.9%"}, {"measurement": "viability, T/C", "setting": "compound 3.16 µM", "value": "55.3% and 83.3% and 73.6%"}, {"measurement": "viability, T/C", "setting": "compound 10 µM", "value": "32.2% and 55.7% and 54.7%"}, {"measurement": "IC50", "setting": "curve of compound", "value": "3.3 µM and > 10 µM"}]}]}
